In patent US11000033B2, “Ketone or oxime compound, and herbicide” (NISSAN CHEMICAL CORPORATION, priority 2014, dated 2021):

What was measured:
Assay type in all cases: in vivo
wheat = assay: Test Example 5: effect on crop by foliage application, plastic box (symbol e); conditions: 320 g/ha, 3 weeks after application
Outline: (§1)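 Foliage-application test plants come from spot sowing in sterilized diluvial soil under a soil layer of about 1.5 cm, grown at 25° C. to 30° C. in a greenhouse.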

beet = assay: Test Example 5: effect on crop by foliage application, plastic box (symbol f); conditions: 320 g/ha, 3 weeks after application
Outline: as §1

Leptochloa chinensis = assay: Test Example 3: herbicidal effect by foliage application, Wagner pot (symbol D); conditions: application herbicide amount 320 g/ha; for D (Leptochloa chinensis) herbicidal effect grade: Table 24
Outline: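 In a shallow-flooded alluvial soil system held at 25–30 °C, plants including rice grew for 14 days and were then sprayed over the foliage with emulsion diluted to a fixed herbicide amount. Visual rating followed at 3 weeks.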

rapeseed = assay: Test Example 4: effect on crop by soil treatment (symbol g); conditions: for Effect on crop grade, g: rapeseed: application herbicide amount 320 g/ha; for g: rapeseed, effect grade on crop: 320 g/ha
Source text: (§2) Herbicidal Effect Test by Soil Treatment
Sterilized diluvial soil was placed in a plastic box having a length of 21 cm, a width of 13 cm, and a depth of 7 cm. Each of the seeds of Digitaria ciliaris, Setaria viridis, Echinochloa crus-galli var. crus-galli, Avena fatua, Alopecurus myosuroides, Lolium multiflorum Lam., Apera spica-venti, Abutilon theophrasti, Amaranthus retroflexus, Chenopodium album, Stellaria media, Galium spurium, Veronica persica, corn, soybean, rice, wheat, beet, and rapeseed was sowed in a spot-like manner and was covered with the soil of a thickness of about 1.5 cm. […] The plastic box was placed in a greenhouse of 25° C. to 30° C. to grow plant.

Apera spica-venti = assay: Test Example 5: herbicidal effect by foliage application, plastic box (symbol L); conditions: 320 g/ha, 3 weeks after application
Outline: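 Emulsion formulation, diluted with water to the intended rate, was applied uniformly to leaves by small sprayer. Recipients were 14-day greenhouse-grown seedlings (25° C. to 30° C.). Assessment followed at 3 weeks.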

Monochoria vaginalis = assay: Test Example 1: herbicidal activity, application before weed generation in submerged conditions (symbol C); conditions: application herbicide amount 320 g/ha
Outline: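 Application before weed emergence: an aqueous dilution of the emulsion formulation was poured onto the surface of 4 cm-deep floodwater on the day of sowing. Effect was judged after 3 weeks (greenhouse, 25–30 °C).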

Abutilon theophrasti = assay: Test Example 4: herbicidal effect by soil treatment (symbol M); conditions: for Herbicidal effect grade, M: Abutilon theophrasti: application herbicide amount 320 g/ha; for M: Abutilon theophrasti, herbicidal effect grade: 320 g/ha
Source text: as §2
(§3) Sterilized diluvial soil was placed in a plastic box having a length of 21 cm, a width of 13 cm, and a depth of 7 cm. Each of the seeds of Digitaria ciliaris, Setaria viridis, Echinochloa crus-galli var. crus-galli, Avena fatua, Alopecurus myosuroides, Lolium multiflorum Lam., Apera spica-venti, Abutilon theophrasti, Amaranthus retroflexus, Chenopodium album, Stellaria media, Galium spurium, Veronica persica, corn, soybean, rice, wheat, beet, and rapeseed was sowed in a spot-like manner and was covered with the soil of a thickness of about 1.5 cm. Subsequently, the emulsion agent of the compound present invention prepared in accordance with Formulation Example 2 was diluted with water so as to be a predetermined herbicide amount and the diluted emulsion agent was uniformly applied to the surface of the soil with a small-size spray. The plastic box was placed in a greenhouse of 25° C. to 30° C. to grow plant. 3 weeks later from the herbicide application, the effect to each plant was investigated in accordance with the criteria of Test Example 1.

[1] = system: directly sowed rice plant; assay: Test Example 3: effect on crop by foliage application, Wagner pot (symbol b); conditions: application herbicide amount 320 g/ha; for b (directly sowed rice plant) effect on crop grade: Table 24
Outline: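 Steps: fill a 1/10000-are Wagner pot with alluvial soil; add water and mix to submerge at 0.1–0.5 cm depth; sow rice plus Echinochloa crus-galli var. crus-galli, Leptochloa chinensis and Cyperus difformis; grow in a 25–30 °C greenhouse.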

Amaranthus retroflexus = assay: Test Example 4: herbicidal effect by soil treatment (symbol N); conditions: for Herbicidal effect grade, N: Amaranthus retroflexus: application herbicide amount 320 g/ha; for N: Amaranthus retroflexus, herbicidal effect grade: 320 g/ha
Source text: as §2, §3

transplanted rice plant = assay: Test Example 1: effect on crop, application before weed generation in submerged conditions (symbol a); conditions: application herbicide amount 320 g/ha
Outline: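 Rice at 2.5 leaf stage transplanted into submerged soil (4 cm depth) sown with three weed species; herbicide applied before weed emergence.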

Digitaria ciliaris = assay: Test Example 4: herbicidal effect by soil treatment (symbol F); conditions: for Herbicidal effect grade, F: Digitaria ciliaris: application herbicide amount 320 g/ha; for F: Digitaria ciliaris, herbicidal effect grade: 320 g/ha
Source text: as §2, §3

corn = assay: Test Example 5: effect on crop by foliage application, plastic box (symbol c); conditions: 320 g/ha, 3 weeks after application
Outline: as §1

SMILES | e: wheat, effect on crop grade (wheat) | f: beet, effect on crop grade (beet) | D (Leptochloa chinensis) herbicidal effect grade (Leptochloa chinensis) | Effect on crop grade, g: rapeseed (rapeseed) | L: Apera spica-venti, herbicidal effect grade (Apera spica-venti) | C (Monochoria vaginalis) herbicidal effect grade (Monochoria vaginalis) | Herbicidal effect grade, M: Abutilon theophrasti (Abutilon theophrasti) | b (directly sowed rice plant) effect on crop grade [1] | Herbicidal effect grade, N: Amaranthus retroflexus (Amaranthus retroflexus) | a (transplanted rice plant) effect on crop grade (transplanted rice plant) | Herbicidal effect grade, F: Digitaria ciliaris (Digitaria ciliaris) | e: wheat, effect on crop (criteria 0-5) (wheat) | g: rapeseed, effect grade on crop (rapeseed) | L: Apera spica-venti, herbicidal effect (criteria 0-5) (Apera spica-venti) | Herbicidal effect grade, C: Monochoria vaginalis (Monochoria vaginalis) | M: Abutilon theophrasti, herbicidal effect grade (Abutilon theophrasti) | N: Amaranthus retroflexus, herbicidal effect grade (Amaranthus retroflexus) | Effect grade on crop, a: transplanted rice plant (transplanted rice plant) | F: Digitaria ciliaris, herbicidal effect grade (Digitaria ciliaris) | c: corn, effect on crop (criteria 0-5) (corn) | also measured
CC#Cc1cc(C)c(C2=C(O)CC(CC(=NOCCOC)C3CC3)C2=O)c(C)c1 (stereo not drawn) [9-021] | 4 (Herbicidal ratio of 70% or higher and lower than 90%) | 0 (Herbicidal ratio of 5% or lower (almost no effect)) | 5 (Herbicidal ratio of 90% or more (almost completely withered)) | 2 (Herbicidal ratio of 20% or higher and lower than 40%) | 5 (Herbicidal ratio of 90% or more (almost completely withered)) | 2 (Herbicidal ratio of 20% or higher and lower than 40%) | 1 (Herbicidal ratio of 5% or higher and lower than 20%) | 5 (Herbicidal ratio of 90% or more (almost completely withered)) | 0 (Herbicidal ratio of 5% or lower (almost no effect)) | 5 (Herbicidal ratio of 90% or more (almost completely withered)) | 5 (Herbicidal ratio of 90% or more (almost completely withered)) | – | – | – | – | – | – | – | – | – | c: corn, effect on crop grade (corn): 5 (Herbicidal ratio of 90% or more (almost completely withered))
COCCON=C(CC1CC(O)=C(c2c(C)cc(-n3cc(Cl)cn3)cc2C)C1=O)C1CC1 (stereo not drawn) [9-020] | 2 (Herbicidal ratio of 20% or higher and lower than 40%) | 0 (Herbicidal ratio of 5% or lower (almost no effect)) | 5 (Herbicidal ratio of 90% or more (almost completely withered)) | 0 (Herbicidal ratio of 5% or lower (almost no effect)) | 4 (Herbicidal ratio of 70% or higher and lower than 90%) | 1 (Herbicidal ratio of 5% or higher and lower than 20%) | 3 (Herbicidal ratio of 40% or higher and lower than 70%) | 5 (Herbicidal ratio of 90% or more (almost completely withered)) | 0 (Herbicidal ratio of 5% or lower (almost no effect)) | 5 (Herbicidal ratio of 90% or more (almost completely withered)) | 4 (Herbicidal ratio of 70% or higher and lower than 90%) | – | – | – | – | – | – | – | – | – | c: corn, effect on crop grade (corn): 5 (Herbicidal ratio of 90% or more (almost completely withered))
CON=C(C)CC1CC(OC(=O)N2CCOCC2)=C(c2c(C)cc(C)cc2C)C1=O (stereo not drawn) [1-104] | – | – | – | – | – | – | – | – | – | – | – | 0 (Herbicidal ratio of 5% or lower (almost no effect)) | 2 (Herbicidal ratio of 20% or higher and lower than 40%) | 5 (Herbicidal ratio of 90% or more (almost completely withered)) | 1 (Herbicidal ratio of 5% or higher and lower than 20%) | 4 (Herbicidal ratio of 70% or higher and lower than 90%) | 0 (Herbicidal ratio of 5% or lower (almost no effect)) | 3 (Herbicidal ratio of 40% or higher and lower than 70%) | 5 (Herbicidal ratio of 90% or more (almost completely withered)) | 4 (Herbicidal ratio of 70% or higher and lower than 90%) | f: beet, effect on crop (criteria 0-5) (beet): 0 (Herbicidal ratio of 5% or lower (almost no effect)); herbicidal effect on D (Leptochloa chinensis), grade 0-5 (Leptochloa chinensis): 5 (Herbicidal ratio of 90% or more (almost completely withered)); effect on crop b (directly sowed rice plant), grade 0-5 [1]: 5 (Herbicidal ratio of 90% or more (almost completely withered))
CCCCCCCCS(=O)(=O)OC1=C(c2c(C)cc(C)cc2C)C(=O)C(CC(C)=NOC)C1 (stereo not drawn) [1-107] | – | – | – | – | – | – | – | – | – | – | – | 2 (Herbicidal ratio of 20% or higher and lower than 40%) | 2 (Herbicidal ratio of 20% or higher and lower than 40%) | 5 (Herbicidal ratio of 90% or more (almost completely withered)) | 1 (Herbicidal ratio of 5% or higher and lower than 20%) | 0 (Herbicidal ratio of 5% or lower (almost no effect)) | 0 (Herbicidal ratio of 5% or lower (almost no effect)) | 3 (Herbicidal ratio of 40% or higher and lower than 70%) | 5 (Herbicidal ratio of 90% or more (almost completely withered)) | 2 (Herbicidal ratio of 20% or higher and lower than 40%) | f: beet, effect on crop (criteria 0-5) (beet): 0 (Herbicidal ratio of 5% or lower (almost no effect)); herbicidal effect on D (Leptochloa chinensis), grade 0-5 (Leptochloa chinensis): 5 (Herbicidal ratio of 90% or more (almost completely withered)); effect on crop b (directly sowed rice plant), grade 0-5 [1]: 5 (Herbicidal ratio of 90% or more (almost completely withered))
CON=C(CC1CC(O)=C(c2c(C)cc(C)cc2C)C1=O)C(F)(F)F (stereo not drawn) [1-097] | – | – | – | – | – | – | – | – | – | – | – | 2 (Herbicidal ratio of 20% or higher and lower than 40%) | 3 (Herbicidal ratio of 40% or higher and lower than 70%) | 4 (Herbicidal ratio of 70% or higher and lower than 90%) | 0 (Herbicidal ratio of 5% or lower (almost no effect)) | 0 (Herbicidal ratio of 5% or lower (almost no effect)) | 0 (Herbicidal ratio of 5% or lower (almost no effect)) | 3 (Herbicidal ratio of 40% or higher and lower than 70%) | 0 (Herbicidal ratio of 5% or lower (almost no effect)) | 5 (Herbicidal ratio of 90% or more (almost completely withered)) | –
